In EP4772505A1, “COMPOUND FOR DEGRADING ANDROGEN RECEPTOR AND MEDICAL USE THEREOF” (Ubix Therapeutics, Inc., priority 2023, dated 2025):

Molecular target: T1, Androgen Receptor (AR) (Homo sapiens, UniProt P10275)
T1 sequence (P10275 1-920): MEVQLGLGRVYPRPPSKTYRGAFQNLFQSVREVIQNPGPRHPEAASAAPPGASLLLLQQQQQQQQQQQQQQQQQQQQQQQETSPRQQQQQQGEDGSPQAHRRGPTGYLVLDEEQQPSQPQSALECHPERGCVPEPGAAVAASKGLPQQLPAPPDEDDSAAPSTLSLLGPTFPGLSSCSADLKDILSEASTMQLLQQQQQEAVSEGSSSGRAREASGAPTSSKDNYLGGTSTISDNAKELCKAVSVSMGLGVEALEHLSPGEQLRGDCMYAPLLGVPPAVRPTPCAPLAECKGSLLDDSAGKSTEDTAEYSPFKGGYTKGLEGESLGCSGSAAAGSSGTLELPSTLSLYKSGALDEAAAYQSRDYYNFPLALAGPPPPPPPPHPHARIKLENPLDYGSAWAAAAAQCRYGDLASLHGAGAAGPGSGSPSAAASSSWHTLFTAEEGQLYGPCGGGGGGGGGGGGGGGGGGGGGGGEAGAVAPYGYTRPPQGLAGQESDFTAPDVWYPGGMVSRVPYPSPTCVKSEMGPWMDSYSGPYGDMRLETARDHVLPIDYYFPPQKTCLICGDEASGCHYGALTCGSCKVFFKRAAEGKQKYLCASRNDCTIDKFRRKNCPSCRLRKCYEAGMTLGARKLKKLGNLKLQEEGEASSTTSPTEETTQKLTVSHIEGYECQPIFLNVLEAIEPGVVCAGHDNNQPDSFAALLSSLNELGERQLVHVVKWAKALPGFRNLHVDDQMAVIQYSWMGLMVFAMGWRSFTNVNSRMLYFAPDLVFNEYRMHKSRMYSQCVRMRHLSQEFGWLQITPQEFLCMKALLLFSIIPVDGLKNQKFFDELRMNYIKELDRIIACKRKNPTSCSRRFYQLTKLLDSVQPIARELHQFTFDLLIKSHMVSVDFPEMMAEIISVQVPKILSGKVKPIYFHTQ
Test: Pharmacodynamic efficacy: AR degradation in tumor of VCaP xenograft model after oral administration
Format: in vivo, CB17/SCID mice
Set-up: After sacrifice, tumor tissue was collected, washed in PBS, and stored at -80°C; from tissue; host or cells: VCaP xenograft tumour from CB17/SCID mice
Settings: 10 mg/kg orally once daily for three days, tumor collected 6 hours after final administration
Method: The protocol for the creation of a xenograft model and pharmacodynamic experiments using VCaP cells was as follows.
[Cell Culture] VCaP cells were resuspended at a density of 4 x 10^5/mL in a mixture of DMEM MEDIUM (Hyclone, SH30243.01), 10% FBS (Hyclone, SV30207.02), 1% Penicillin-streptomycin (Welgene, LS 202-02), and 1x Non-essential amino acid solution (100x) (Sigma, M7145-100mL). 50 mL of the cells were seeded into CELLBIND cell culture flasks (150 cm^2) (Corning, 3291) and cultured for 5 days.
[Xenotransplantation] The media was removed from the flask containing cultured VCaP cells and washed with 10 mL of PBS (Welgene, LB001-02). After removing the PBS, 2 mL of 1x 0.05% Trypsin-EDTA (Welgene, LS015-01) was added and treated in a cell incubator for 3 minutes. Then, 10 mL of media was added, pipetted, and placed in a 50 mL tube. The pellets were collected by centrifugation at 500 g for 5 minutes. The collected pellets were washed once more with 20 mL of PBS. The washed pellets were collected by centrifugation at 500 g for 5 minutes. The PBS was removed, and 500 µL of HBSS (Gibco, 14025092) was added and pipetted. After diluting 100-fold in HBSS and measuring the cell count, the concentration was calculated as 3 x 10^6/50 µL/mouse, diluted in HBSS, and stored in an ice bucket. An equal volume of matrigel (R&D system, 3432-005-01) was added to the stored cells, homogenized by pipetting, and then 100 µL per mouse was inoculated subcutaneously into the right flank of CB17/SCID mice.
[Measurement of tumor size and division into groups] After 2-3 weeks of inoculation with cancer cells, the transplanted cancer cells grew and were measured in size using a caliper. The measured tumor size was calculated as [long axis x short axis^2 x 0.5]. When the tumor size exceeded approximately […], the experimental animals were divided into groups based on the average tumor size and the concentration of the drug to be administered. The groups always included a group containing only the solvent (vehicle) without the drug.
[Drug Preparation and Administration] The drug was dissolved in a solvent and orally administered to each experimental animal in a volume of 200 µL (approximately 8 mL/kg). The solvent composition was 3% DMSO (Sigma, D8418), 10% Cremophor EL (Sigma, C5135), 20% PEG400 (Sigma, 06855-1KG), and 67% distilled water. The preparation method was as follows. Depending on the drug concentration (e.g., 10 or 30 mg/kg), each drug was weighed and dissolved in DMSO corresponding to 3% of the total solvent volume. […]
[Cancer Tissue Extraction] […] Changes in tumor size were measured during the prescribed administration period, and the mice were sacrificed 6 hours after the final administration. […]

SMILES | AR degradation in tumor (%)
N#Cc1ccc(N2CCC(C(=O)Nc3ccc(OC4CCN(CC5CCN(c6ccc(N[C@H]7CCC(=O)NC7=O)cc6F)CC5)CC4)cn3)CC2)cc1C(F)(F)F [Example 2, (S)-1-(4-cyano-3-(trifluoromethyl)phenyl)-N-(5-((1-((1-(4-((2,6-dioxopiperidin-3-yl)amino)-2-fluorophenyl)piperidin-4-yl)methyl)piperidin-4-yl)oxy)pyridin-2-yl)piperidine-4-carboxamide] | 96
N#Cc1ccc(N2CCC(C(=O)Nc3ccc(OC4CCN(CC5CCN(c6ccc(N[C@@H]7CCC(=O)NC7=O)cc6F)CC5)CC4)cn3)CC2)cc1C(F)(F)F [Example 3, (R)-1-(4-cyano-3-(trifluoromethyl)phenyl)-N-(5-((1-((1-(4-((2,6-dioxopiperidin-3-yl)amino)-2-fluorophenyl)piperidin-4-yl)methyl)piperidin-4-yl)oxy)pyridin-2-yl)piperidine-4-carboxamide] | 89
N#Cc1ccc(N2CCC(C(=O)Nc3ccc(OC4CCN(CC5CCN(c6ccc(N[C@H]7CCC(=O)NC7=O)cc6F)CC5)CC4)cn3)CC2)cc1Cl [Example 9, (S)-1-(3-chloro-4-cyanophenyl)-N-(5-((1-((1-(4-((2,6-dioxopiperidin-3-yl)amino)-2-fluorophenyl)piperidin-4-yl)methyl)piperidin-4-yl)oxy)pyridin-2-yl)piperidine-4-carboxamide] | 97
N#Cc1ccc(N2CCC(C(=O)Nc3ccc(OC4CCN(CC5CCN(c6ccc(NC7CCC(=O)NC7=O)cc6F)CC5)CC4)cn3)CC2)cc1C(F)(F)F (stereo not shown) [Example 1, 1-(4-cyano-3-(trifluoromethyl)phenyl)-N-(5-((1-((1-(4-((2,6-dioxopiperidin-3-yl)amino)-2-fluorophenyl)piperidin-4-yl)methyl)piperidin-4-yl)oxy)pyridin-2-yl)piperidine-4-carboxamide] | 86
